{
  "source": "patent US20220305001A1",
  "about": "“METHODS OF TREATING ACUTE MYELOID LEUKEMIA WITH FARNESYLTRANSFERASE INHIBITORS” (Kura Oncology, Inc., priority 2019, published 2022)",
  "key": {"[1]": {"test_system": "AML", "test": "Tipifarnib treatment of previously untreated elderly or unfit AML patients, survival analysed by mRNA expression of FLT3LG/CXCR4", "format": "in vivo, human", "protocol": "(§1) Previous clinical studies with tipifarnib were performed in newly diagnosed AML in elderly patients with poor risk AML or relapsed and refractory AML. In these studies, patient selection was not based on genetic markers. Anecdotal evidence of tipifarnib single agent activity was reported."}, "[2]": {"test_system": "AML", "test": "Tipifarnib treatment of relapsed or refractory AML patients, survival analysed by mRNA expression of FLT3LG/CXCR4", "format": "in vivo, human", "protocol": "as §1"}, "[3]": {"conditions": "highest FLT3LG expression tertile"}, "[4]": {"conditions": "second FLT3LG expression tertile"}, "[5]": {"conditions": "third tertile (lowest level of FLT3LG expression)"}, "[6]": {"conditions": "first three quartiles of FLT3LG expression"}, "[7]": {"conditions": "highest FLT3LG tertile and highest CXCR4 tertile (N=10)"}, "[8]": {"conditions": "highest quintile of FLT3LG expression"}, "[9]": {"conditions": "rest of patients with either lower FLT3LG or lower CXCR4 expression (N=47)"}},
  "data": [
    {"smiles": "Cn1cncc1[C@@](N)(c1ccc(Cl)cc1)c1ccc2c(c1)c(-c1cccc(Cl)c1)cc(=O)n2C", "note": "[tipifarnib]", "values": [
      {"measurement": "median overall survival (mOS)", "setting": "[1]; [3]", "value": 548, "unit": "days"},
      {"measurement": "median progression free survival (mPFS)", "setting": "[1]; [3]", "value": 247, "unit": "days"},
      {"measurement": "median overall survival (mOS)", "setting": "[1]; [4]", "value": 153, "unit": "days"},
      {"measurement": "median progression free survival (mPFS)", "setting": "[1]; [4]", "value": 64, "unit": "days"},
      {"measurement": "median overall survival (mOS)", "setting": "[1]; [5]", "value": 76, "unit": "days"},
      {"measurement": "median progression free survival (mPFS)", "setting": "[1]; [5]", "value": 35, "unit": "days"},
      {"measurement": "median overall survival (mOS)", "setting": "[2]; [6]", "value": "54 to 83", "unit": "days"},
      {"measurement": "median progression free survival (mPFS)", "setting": "[2]; [6]", "value": "28 to 29", "unit": "days"},
      {"measurement": "median overall survival (mOS)", "setting": "[2]; [7]", "value": 234, "unit": "days"},
      {"measurement": "median progression free survival (mPFS)", "setting": "[2]; [7]", "value": 148, "unit": "days"},
      {"measurement": "median overall survival (mOS)", "setting": "[2]; [8]", "value": 234, "unit": "days"},
      {"measurement": "median progression free survival (mPFS)", "setting": "[2]; [8]", "value": 119, "unit": "days"},
      {"measurement": "median overall survival (mOS)", "setting": "[2]; [9]", "value": 84, "unit": "days"},
      {"measurement": "median progression free survival (mPFS)", "setting": "[2]; [9]", "value": 29, "unit": "days"}
    ]}
  ]
}
